# From ChEMBL document CHEMBL1201862, “PubChem BioAssay data set” (2004)
# Active and inactive are the calls of the source.
# Columns and labels:
# [1] = target: T1, E3 ubiquitin-protein ligase XIAP (Homo sapiens, UniProt P98170); assay: XIAP antagonists, biochemical, IAP family, fluorescence polarization (AID 1018); type: functional
# [2] = target: T1, E3 ubiquitin-protein ligase XIAP; assay: Counter Screen using XIAP-Bir3 for Chemical Antagonists of Bir1/2 domains of IAP-family anti-apoptotic proteins. [Related pubchem assays (depositor defined):AID1018, AID1449, AID1514, AID1638, AID1749, AID1750, AID488957, AID488963]
# [3] = target: Intestinal-type alkaline phosphatase (Mus musculus, UniProt P24822); assay: PubChem AID 488785; type: functional
# [4] = target: T2, Alkaline phosphatase, tissue-nonspecific isozyme (Homo sapiens, UniProt P05186); assay: TNAP enzyme inhibition by screening hits, dose response, selectivity assay for mouse IAP inhibitor project, biochemical, human TNAP, uHTS hits (AID 488906); type: functional
# T2 sequence (P05186 whole entry): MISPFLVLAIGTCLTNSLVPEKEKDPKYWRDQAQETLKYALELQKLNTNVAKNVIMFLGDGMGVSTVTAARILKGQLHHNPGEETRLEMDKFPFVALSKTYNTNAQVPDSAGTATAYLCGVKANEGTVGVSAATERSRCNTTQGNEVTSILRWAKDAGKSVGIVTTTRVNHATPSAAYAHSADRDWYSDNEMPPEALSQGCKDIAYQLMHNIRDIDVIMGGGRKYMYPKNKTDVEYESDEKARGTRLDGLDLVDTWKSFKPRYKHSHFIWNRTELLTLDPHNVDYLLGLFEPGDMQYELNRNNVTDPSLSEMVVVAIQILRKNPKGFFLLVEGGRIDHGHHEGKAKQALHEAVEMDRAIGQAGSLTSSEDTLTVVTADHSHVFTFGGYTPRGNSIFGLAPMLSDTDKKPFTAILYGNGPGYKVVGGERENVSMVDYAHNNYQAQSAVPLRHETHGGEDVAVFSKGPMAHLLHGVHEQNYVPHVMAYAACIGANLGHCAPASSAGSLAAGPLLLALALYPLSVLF
# [5] = target: Intestinal-type alkaline phosphatase (Homo sapiens, UniProt P09923); assay: inhibition of human intestinal alkaline phosphatase – biochemical, dose response (AID 488876); type: functional
# [6] = test system: Streptococcus; assay: Group A Streptococcus viability loss, dose response, counter-screen for streptokinase expression inhibitor project, luminescence, BacTiterGlo (AID 1915); type: functional, organism-based;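 further: potency for reduction of bacterial viability or growth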
# [7] = test system: HEK293; assay: cells; type: functional, cell-based; conditions: Homo sapiens
# [8] = test system: Streptococcus sp. 'group A'; assay: growth inhibition of control SK(-) GAS strain, dose response, counter-screen for streptokinase expression inhibitor project, luminescence, kanamycin, BacTiterGlo, confirmation (AID 1900); type: functional, organism-based
# [9] = test system: HEK293; assay: cells; conditions: Homo sapiens
# [10] = CRF-BP/CRF-R2 complex antagonists, dose response, cell-based, uHTS hits, 384-well (AID 651639); type: functional, Homo sapiens; conditions: read-out: IC50_Mean
# [11] = test system: HEK293; assay: NOD2 signaling inhibitors in MDP-stimulated cells, cell-based, uHTS, luminescence (AID 2001); type: functional; conditions: Homo sapiens
# [12] = test system: HEK293; assay: NOD1 signaling inhibitors, primary screen, cell-based, luminescence, uHTS (AID 1578); type: functional; conditions: Homo sapiens
# [13] = test system: HEK293; assay: cells; type: functional, cell-based; conditions: Homo sapiens; remark: listed apart in the source
# [14] = Luminescence Cell-Based Dose Response HTS to Identify Inhibitors of 5'UTR Stem-Loop Driven Prion Protein mRNA Translation in H4 Neuroglioblastoma Cells. [Related pubchem assays: 1827 (Project Summary), 1813 (Primary HTS)]; type: functional
# [15] = inhibitors of SNCA 5'UTR-driven reporter translation, confirmation, H4 neuroglioma cells, luminescence (AID 1988); type: functional, cell-based
# [16] = inhibitors of firefly luciferase expression or activity, dose response, H4 neuroglioma cells, luminescence (AID 1990); type: functional, cell-based
# [17] = cytotoxicity toward NIH3T3 fibroblasts, dose response, counter-screen, cell-based, ATP luminescence, mouse fibroblasts (AID 2010); type: functional;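 further: cells exposed to compound for about 90 hours before reading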
# [18] = C. albicans growth with fluconazole, confirmation, fluorescence, retest (AID 2467); type: functional, cell-based
# [19] = Counterscreen for AddAB inhibitors: absorbance-based bacterial cell-based high throughput dose response assay for inhibitors of bacterial viability. [Related pubchem assays (depositor defined):AID435030, AID449728, AID449731, AID488942, AID488955, AID488956]; type: functional
# [20] = NIH-3T3 fibroblast cytotoxicity, dose response, cytotoxicity control, cell-based, fluorescence, Alamar Blue, secondary assay (AID 2327); type: functional;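 further: NIH-3T3 mouse fibroblasts cultured with fluconazole at 8 µg/mL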
# [21] = target: T3, Exodeoxyribonuclease V (Escherichia coli (strain K12), UniProt P04993+P07648+P08394); assay: E. coli RecBCD inhibitors, dose response, counter-screen for AddAB inhibitor project, absorbance, V66 E. coli, mutant T4 phage (AID 492957); type: functional, cell-based, Escherichia coli str. K-12 substr. MG1655
# T3 sequence (P04993 whole entry): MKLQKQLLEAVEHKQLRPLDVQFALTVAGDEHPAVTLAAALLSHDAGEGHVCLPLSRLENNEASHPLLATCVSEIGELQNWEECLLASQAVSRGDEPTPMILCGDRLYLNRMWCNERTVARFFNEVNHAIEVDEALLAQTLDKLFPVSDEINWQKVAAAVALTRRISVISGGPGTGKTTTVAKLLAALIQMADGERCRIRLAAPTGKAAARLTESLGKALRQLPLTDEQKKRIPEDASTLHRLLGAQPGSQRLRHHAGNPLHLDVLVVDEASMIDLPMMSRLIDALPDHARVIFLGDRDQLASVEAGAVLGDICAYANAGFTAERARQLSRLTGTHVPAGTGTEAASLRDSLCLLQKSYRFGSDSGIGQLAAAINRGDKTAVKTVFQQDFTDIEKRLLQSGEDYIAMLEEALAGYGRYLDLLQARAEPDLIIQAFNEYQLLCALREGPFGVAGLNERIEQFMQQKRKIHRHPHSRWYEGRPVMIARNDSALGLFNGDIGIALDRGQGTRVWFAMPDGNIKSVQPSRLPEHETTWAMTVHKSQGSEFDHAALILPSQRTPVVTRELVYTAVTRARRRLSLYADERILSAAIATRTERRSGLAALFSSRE
# T3 sequence (P07648 whole entry): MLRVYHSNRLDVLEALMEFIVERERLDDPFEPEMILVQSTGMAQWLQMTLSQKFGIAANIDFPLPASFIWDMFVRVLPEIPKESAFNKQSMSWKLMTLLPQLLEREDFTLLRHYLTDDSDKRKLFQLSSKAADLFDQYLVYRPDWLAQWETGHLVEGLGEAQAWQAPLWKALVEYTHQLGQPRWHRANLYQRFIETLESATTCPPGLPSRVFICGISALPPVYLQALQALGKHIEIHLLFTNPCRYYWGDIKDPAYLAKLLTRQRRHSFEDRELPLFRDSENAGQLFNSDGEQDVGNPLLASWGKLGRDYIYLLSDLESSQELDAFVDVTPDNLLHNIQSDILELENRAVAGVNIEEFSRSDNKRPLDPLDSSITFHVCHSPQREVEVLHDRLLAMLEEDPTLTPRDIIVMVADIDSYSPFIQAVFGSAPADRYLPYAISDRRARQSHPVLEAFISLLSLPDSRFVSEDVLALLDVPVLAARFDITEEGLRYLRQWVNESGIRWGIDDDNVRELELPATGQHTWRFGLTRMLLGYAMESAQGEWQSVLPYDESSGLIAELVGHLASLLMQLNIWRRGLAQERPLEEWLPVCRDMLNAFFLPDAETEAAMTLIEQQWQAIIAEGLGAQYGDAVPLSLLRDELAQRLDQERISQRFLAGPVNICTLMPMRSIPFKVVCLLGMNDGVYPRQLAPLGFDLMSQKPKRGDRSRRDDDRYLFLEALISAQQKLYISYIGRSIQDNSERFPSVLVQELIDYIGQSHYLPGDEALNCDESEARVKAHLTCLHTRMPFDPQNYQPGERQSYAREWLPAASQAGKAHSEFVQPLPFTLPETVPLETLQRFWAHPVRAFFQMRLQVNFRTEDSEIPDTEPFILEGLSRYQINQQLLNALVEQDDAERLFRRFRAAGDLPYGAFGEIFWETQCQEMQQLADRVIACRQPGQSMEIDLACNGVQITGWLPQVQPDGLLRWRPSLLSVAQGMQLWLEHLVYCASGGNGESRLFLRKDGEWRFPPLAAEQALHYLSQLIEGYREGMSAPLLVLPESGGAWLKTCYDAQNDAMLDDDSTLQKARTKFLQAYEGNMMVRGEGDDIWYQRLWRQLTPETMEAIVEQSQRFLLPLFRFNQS
# T3 sequence (P08394 whole entry): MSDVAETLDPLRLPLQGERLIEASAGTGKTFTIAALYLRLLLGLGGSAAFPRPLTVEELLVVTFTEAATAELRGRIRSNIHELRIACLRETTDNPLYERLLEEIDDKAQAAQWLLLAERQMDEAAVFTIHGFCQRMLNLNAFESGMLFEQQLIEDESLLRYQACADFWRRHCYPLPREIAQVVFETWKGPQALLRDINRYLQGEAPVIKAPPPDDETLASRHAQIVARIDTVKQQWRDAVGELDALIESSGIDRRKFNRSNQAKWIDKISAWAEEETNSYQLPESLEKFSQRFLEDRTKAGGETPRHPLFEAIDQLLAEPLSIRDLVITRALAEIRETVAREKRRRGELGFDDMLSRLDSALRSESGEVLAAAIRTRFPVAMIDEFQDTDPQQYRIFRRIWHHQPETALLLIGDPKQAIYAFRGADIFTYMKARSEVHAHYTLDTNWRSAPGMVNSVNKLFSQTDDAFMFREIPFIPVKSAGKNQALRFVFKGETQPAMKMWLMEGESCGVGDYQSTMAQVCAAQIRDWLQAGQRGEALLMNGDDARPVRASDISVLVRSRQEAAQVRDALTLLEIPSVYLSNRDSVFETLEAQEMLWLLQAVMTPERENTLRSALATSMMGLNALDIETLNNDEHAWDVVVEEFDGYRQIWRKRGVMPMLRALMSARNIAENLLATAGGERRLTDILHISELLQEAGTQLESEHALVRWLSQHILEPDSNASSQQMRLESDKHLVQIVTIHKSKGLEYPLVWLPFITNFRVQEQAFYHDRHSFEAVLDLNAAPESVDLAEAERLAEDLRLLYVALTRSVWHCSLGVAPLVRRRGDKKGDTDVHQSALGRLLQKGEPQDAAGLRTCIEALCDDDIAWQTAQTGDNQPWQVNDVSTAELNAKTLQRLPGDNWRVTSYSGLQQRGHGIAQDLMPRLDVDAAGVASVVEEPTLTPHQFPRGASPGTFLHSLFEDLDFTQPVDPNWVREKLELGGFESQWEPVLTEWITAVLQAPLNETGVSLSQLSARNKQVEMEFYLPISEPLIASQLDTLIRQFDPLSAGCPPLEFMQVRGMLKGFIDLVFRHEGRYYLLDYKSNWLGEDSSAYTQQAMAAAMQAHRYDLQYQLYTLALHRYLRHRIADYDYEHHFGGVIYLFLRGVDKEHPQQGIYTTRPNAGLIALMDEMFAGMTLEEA
# [22] = inhibitors of intracellular T. cruzi replication, confirmation, NIH3T3 host cells, beta-gal luminescence (AID 2044); type: functional, cell-based;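 further: intracellular parasites grown in NIH/3T3 mouse fibroblasts as host cells; luminescent beta-galactosidase reporter signal from transgenic T. cruzi replicating inside host cells; inhibitors lower the luminescence signal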
# [23] = cells; type: functional, cell-based
# [24] = target: Heat shock protein HSP 90-alpha (Homo sapiens, UniProt P07900); type: functional, organism-based
# [25] = test system: INS1; assay: beta cell apoptosis inhibitors, cytokine rescue, dose response, luminescence, retest (AID 449756); type: functional, cell-based; conditions: Rattus norvegicus;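 further: cell death triggered by IL-1 beta plus TNF-alpha plus IFN-gamma mixture; protective hits raise ATP signal compared with cytokine alone wells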
# [26] = human group III sPLA2 inhibitors, dose response, biochemical, QFRET, IC50 (AID 743457);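 further: green fluorescence rise as the enzyme cleaves BODIPY PC-A2 in liposomes; potency for inhibition of the enzyme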
# [27] = cells; type: functional, cell-based; remark: listed apart in the source
# Intestinal-type alkaline phosphatase (Mus musculus, UniProt P24822), sequence (P24822 whole entry): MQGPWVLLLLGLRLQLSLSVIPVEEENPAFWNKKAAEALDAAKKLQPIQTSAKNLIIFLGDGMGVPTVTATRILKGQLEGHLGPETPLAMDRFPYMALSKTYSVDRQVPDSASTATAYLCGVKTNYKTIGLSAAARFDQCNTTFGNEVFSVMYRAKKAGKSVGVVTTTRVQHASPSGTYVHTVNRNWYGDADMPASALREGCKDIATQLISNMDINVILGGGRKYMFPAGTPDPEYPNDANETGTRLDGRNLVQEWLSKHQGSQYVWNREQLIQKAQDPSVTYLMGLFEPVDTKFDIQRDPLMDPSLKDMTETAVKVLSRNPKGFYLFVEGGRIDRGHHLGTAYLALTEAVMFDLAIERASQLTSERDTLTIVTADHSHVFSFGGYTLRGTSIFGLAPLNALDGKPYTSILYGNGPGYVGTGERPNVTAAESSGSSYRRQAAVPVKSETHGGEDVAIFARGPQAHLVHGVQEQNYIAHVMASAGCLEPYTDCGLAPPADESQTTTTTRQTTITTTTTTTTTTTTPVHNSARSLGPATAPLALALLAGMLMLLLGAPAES
# Intestinal-type alkaline phosphatase (Homo sapiens, UniProt P09923), sequence (P09923 whole entry): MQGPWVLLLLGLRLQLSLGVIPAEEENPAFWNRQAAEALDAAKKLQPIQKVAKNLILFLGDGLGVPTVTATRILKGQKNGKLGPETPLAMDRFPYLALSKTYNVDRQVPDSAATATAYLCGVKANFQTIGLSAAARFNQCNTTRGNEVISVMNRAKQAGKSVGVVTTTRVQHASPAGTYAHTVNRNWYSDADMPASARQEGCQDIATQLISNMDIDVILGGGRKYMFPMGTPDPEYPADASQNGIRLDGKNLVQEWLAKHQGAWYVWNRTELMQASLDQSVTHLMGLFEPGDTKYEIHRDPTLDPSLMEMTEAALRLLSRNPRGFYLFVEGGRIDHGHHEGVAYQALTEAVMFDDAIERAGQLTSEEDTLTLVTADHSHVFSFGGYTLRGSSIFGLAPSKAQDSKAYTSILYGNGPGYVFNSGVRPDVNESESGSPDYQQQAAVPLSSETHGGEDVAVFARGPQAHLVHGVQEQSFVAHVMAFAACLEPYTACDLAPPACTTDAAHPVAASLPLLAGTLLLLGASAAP
# T1 sequence (P98170 whole entry): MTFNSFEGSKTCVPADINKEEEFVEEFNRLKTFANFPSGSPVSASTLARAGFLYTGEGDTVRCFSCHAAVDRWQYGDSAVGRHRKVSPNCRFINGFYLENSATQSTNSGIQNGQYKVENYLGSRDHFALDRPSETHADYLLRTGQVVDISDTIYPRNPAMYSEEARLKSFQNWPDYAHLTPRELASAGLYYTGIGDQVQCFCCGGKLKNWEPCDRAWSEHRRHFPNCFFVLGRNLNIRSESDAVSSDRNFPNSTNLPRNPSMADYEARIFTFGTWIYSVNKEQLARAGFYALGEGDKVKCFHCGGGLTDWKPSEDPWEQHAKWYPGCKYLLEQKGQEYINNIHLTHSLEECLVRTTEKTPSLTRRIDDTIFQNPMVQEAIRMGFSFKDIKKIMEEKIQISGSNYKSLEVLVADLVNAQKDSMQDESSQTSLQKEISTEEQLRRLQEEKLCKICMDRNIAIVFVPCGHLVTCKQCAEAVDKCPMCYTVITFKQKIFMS
structure (smiles),measurement,setting,value
CCN(CC)S(=O)(=O)c1cccc(C(=O)c2c(C)cc3ccccn23)c1,IC50,[1],> 100 µM (not active)
same,IC50,[2],> 100 µM (inactive)
O=C(Nc1cccc(-c2cccc(Cl)c2)c1)C1CCN(C2CCC2)CC1,IC50,[3],9.39 µM (active)
same,IC50,[4],11.8 µM (active)
same,IC50,[5],8.64 µM (active)
CC(C)C(c1nnnn1C(C)(C)C)N1CCC(Cc2ccccc2)CC1 (centres undefined),IC50,[1],> 100 µM (not active)
same,IC50,[2],> 100 µM (inactive)
Cc1ccc(SCc2cc(O)nc(SCC(=O)Nc3cc(Cl)ccc3Cl)n2)cc1,EC50,[6],38.5 µM (active)
same,IC50,[7],> 20 µM (inactive)
same,EC50,[8],9.13 µM (active)
same,IC50,[9],> 20 µM (inactive)
same,IC50,[10],> 20 µM (inactive)
same,IC50,[11],9.47 µM (inactive)
same,EC50,[12],6.75 µM (active)
same,IC50,[13],> 20 µM (inactive)
O=C(c1cc(-n2cnnc2)ccc1Cl)N1CCN(c2nc(-c3ccccc3)cs2)CC1,EC50,[14],15.1 µM (active)
same,IC50,[1],> 100 µM (not active)
same,EC50,[15],> 120 µM (not active)
same,IC50,[2],> 100 µM (inactive)
same,EC50,[16],> 30 µM (not active)
O=C(NCCCCc1ccccc1)NC[C@@H]1CC[C@@H](Cc2ccc(-c3ccccc3)cc2)O1,IC50,[3],2.6 µM (active)
same,IC50,[4],15.6 µM (active)
same,IC50,[5],2.1 µM (active)
C=CCc1cccc(/C=N/NC(=O)CNc2ccccc2OC)c1O,EC50,[17],7.37 µM (active)
same,EC50,[18],> 38 µM (not active)
same,IC50,[19],> 119 µM (inactive)
same,EC50,[20],> 160 µM (inactive)
same,IC50,[21],> 119 µM (inactive)
same,EC50,[22],2.01 µM (active)
CCCCC(=O)NC(c1cccs1)c1cc(Cl)c2cccnc2c1O (centres undefined),EC50,[23],> 350 µM (not active)
same,IC50,[19],> 119 µM (inactive)
same,AC50,[24],3.6 µM (active)
same,AC50,[25],1.19 µM (active)
same,IC50,[26],> 122 µM (inactive)
same,IC50,[21],> 119 µM (inactive)
same,EC50,[27],57.5 µM (active)
Cc1ccc(CN2C3CCCC2CC(NC(=O)Nc2cccc(F)c2)C3)cc1 (centres undefined),IC50,[3],9.9 µM (active)
same,IC50,[4],63.3 µM (active)
same,IC50,[5],> 100 µM (inactive)
